Activity calls are given as the source filed them.
How the values were obtained:
[1] = biological target: T1, Aminopeptidase N (Plasmodium falciparum FcB1/Columbia, UniProt O96935); assay: P. falciparum M1AAP inhibitors, biochemical, fluorogenic H-Leu-NHMec substrate, 1536-well (AID 1445); set-up: species or system Plasmodium falciparum 3D7, 3D7
T1 sequence (O96935 whole entry): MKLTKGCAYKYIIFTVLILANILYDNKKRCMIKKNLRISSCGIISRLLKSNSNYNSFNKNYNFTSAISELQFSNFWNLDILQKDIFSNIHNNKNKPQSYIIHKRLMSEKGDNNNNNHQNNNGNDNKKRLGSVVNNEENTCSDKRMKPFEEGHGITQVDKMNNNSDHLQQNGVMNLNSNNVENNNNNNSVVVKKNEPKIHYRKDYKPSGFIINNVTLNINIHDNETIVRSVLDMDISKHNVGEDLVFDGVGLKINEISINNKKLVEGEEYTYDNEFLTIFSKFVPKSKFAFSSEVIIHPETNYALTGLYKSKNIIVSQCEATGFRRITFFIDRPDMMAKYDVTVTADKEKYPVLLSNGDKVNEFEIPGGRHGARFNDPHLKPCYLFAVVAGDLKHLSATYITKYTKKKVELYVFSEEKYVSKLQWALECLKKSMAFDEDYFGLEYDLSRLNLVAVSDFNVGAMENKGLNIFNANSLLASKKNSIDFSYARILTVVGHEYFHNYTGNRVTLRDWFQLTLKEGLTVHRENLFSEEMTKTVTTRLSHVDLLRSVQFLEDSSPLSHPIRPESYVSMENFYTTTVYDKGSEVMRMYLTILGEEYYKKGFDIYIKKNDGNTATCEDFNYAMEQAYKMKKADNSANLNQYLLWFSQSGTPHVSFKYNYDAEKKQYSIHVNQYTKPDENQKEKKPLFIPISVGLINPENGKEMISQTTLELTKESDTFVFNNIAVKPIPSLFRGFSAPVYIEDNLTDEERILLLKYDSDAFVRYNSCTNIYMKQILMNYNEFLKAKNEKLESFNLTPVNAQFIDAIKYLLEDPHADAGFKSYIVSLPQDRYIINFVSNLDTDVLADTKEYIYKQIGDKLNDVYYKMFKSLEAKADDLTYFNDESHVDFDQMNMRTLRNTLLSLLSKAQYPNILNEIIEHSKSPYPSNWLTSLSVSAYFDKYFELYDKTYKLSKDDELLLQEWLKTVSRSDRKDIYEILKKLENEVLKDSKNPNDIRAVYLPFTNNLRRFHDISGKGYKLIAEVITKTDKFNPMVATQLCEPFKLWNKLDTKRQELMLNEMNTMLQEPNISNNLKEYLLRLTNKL

[2] = Counterscreen for IDE inhibitors: Luminescence-based cell-based high throughput dose response assay to identify compounds that are cytotoxic to HEK cells. [Related pubchem assays: 434962 (Primary screen (IDE inhibitors in singlicate)), 449730 (Counterscreen (Cytotoxicity in triplicate)), 435028 (Confirmation (IDE inhibitors in triplicate)) …; format: functional; conditions: HEK293
[3] = biological target: Transitional endoplasmic reticulum ATPase (Homo sapiens, UniProt P55072, C522A); assay: C522A mutant p97 ATPase inhibitors, dose response, counter-screen for p97 inhibitor project, biochemical, luminescence (AID 1544)
Sequence of Transitional endoplasmic reticulum ATPase (Homo sapiens, UniProt P55072, C522A) (P55072 2-806 C522A limits assumed): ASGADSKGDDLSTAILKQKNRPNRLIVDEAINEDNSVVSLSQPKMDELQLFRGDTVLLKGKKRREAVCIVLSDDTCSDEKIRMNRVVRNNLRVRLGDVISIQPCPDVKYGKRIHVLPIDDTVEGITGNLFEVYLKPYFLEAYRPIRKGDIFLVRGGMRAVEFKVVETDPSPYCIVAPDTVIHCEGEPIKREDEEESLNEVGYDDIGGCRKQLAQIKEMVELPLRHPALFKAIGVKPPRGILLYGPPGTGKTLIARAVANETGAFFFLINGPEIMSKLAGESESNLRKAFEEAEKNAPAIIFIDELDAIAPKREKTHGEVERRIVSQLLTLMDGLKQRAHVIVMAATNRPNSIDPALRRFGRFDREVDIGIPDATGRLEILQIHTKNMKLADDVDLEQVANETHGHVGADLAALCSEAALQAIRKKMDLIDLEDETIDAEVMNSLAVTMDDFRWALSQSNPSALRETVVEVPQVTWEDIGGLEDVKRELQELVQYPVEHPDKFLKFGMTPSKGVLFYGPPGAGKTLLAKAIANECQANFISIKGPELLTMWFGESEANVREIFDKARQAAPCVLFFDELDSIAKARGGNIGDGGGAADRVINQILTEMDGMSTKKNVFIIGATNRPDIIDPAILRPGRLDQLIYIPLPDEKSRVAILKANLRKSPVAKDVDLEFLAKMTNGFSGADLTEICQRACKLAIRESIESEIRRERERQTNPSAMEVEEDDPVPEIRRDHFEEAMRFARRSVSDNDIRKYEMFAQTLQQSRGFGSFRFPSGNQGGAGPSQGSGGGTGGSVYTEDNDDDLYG

[4] = biological target: T2, Insulin-degrading enzyme (Homo sapiens, UniProt P14735); assay: Dose Response: Fluorescence polarization-based cell-based high throughput dose response assay for inhibitors of insulin-degrading enzyme (IDE). [Related pubchem assays: 434962 (Primary screen (IDE inhibitors in singlicate)), 449730 (Counterscreen (Cytotoxicity in triplicate)), 435028 (Confirmation (IDE inhibitors in triplicate)), 434984 (Summary …; format: functional
T2 sequence (P14735 whole entry): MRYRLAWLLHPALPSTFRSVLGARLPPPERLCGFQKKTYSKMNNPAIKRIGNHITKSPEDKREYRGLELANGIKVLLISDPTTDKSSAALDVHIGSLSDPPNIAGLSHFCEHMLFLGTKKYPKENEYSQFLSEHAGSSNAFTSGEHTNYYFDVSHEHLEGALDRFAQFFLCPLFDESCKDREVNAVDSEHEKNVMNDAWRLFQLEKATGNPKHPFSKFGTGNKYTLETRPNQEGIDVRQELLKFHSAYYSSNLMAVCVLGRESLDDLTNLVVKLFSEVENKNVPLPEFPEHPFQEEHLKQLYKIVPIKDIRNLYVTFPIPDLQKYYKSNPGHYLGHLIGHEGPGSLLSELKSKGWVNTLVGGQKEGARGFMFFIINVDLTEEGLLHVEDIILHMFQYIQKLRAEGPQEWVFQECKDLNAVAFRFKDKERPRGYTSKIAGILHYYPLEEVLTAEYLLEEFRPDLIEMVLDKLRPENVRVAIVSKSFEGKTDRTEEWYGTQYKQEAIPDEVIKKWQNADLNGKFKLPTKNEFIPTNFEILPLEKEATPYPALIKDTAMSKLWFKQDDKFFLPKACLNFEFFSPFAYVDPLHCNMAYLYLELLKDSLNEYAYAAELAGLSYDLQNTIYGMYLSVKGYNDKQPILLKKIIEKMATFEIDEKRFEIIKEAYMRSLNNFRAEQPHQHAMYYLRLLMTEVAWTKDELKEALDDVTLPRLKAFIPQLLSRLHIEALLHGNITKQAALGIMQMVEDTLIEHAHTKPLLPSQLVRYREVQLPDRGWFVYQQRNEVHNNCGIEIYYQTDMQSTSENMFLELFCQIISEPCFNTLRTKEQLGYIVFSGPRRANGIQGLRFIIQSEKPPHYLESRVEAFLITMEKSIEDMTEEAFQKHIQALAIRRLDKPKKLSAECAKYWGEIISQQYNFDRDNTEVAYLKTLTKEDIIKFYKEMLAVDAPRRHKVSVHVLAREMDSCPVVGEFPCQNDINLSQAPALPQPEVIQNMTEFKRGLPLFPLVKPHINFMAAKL

[5] = biological target: Transitional endoplasmic reticulum ATPase (Homo sapiens, UniProt P55072); assay: p97 ATPase inhibitors, dose response, biochemical (AID 1534)
Sequence of Transitional endoplasmic reticulum ATPase (Homo sapiens, UniProt P55072) (P55072 whole entry): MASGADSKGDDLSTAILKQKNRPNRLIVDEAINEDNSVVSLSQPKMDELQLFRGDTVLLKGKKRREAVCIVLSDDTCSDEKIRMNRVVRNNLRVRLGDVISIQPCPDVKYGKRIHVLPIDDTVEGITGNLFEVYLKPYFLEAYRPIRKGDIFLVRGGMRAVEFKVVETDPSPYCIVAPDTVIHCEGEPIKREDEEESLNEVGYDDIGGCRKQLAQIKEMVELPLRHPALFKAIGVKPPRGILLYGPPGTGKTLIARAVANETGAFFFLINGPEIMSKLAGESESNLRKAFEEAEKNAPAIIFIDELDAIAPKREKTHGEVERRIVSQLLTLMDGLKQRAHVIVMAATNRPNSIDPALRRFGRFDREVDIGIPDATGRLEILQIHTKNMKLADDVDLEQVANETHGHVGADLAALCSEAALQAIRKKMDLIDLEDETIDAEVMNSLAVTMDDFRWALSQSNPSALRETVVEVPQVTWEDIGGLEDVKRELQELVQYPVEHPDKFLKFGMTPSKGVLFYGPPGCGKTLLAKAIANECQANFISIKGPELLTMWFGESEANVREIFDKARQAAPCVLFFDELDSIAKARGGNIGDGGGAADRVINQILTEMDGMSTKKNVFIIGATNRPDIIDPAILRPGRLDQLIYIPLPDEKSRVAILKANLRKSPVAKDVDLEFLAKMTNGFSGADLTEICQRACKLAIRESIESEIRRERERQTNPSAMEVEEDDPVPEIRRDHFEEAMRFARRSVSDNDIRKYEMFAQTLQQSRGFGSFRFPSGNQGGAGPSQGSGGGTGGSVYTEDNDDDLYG

[6] = biological target: Kallikrein-7 (Homo sapiens, UniProt P49862); assay: Fluorescence Intensity-based biochemical primary high throughput dose response assay to identify activators of kallikrein-7 (K7) zymogen.
Sequence of Kallikrein-7 (P49862 whole entry): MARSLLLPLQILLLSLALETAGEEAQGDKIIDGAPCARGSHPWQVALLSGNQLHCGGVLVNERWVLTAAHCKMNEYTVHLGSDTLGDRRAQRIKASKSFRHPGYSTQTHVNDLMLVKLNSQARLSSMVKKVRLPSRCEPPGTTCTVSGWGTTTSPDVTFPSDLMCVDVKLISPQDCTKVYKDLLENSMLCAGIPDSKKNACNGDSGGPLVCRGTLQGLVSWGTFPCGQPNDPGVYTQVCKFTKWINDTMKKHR

[7] = biological target: T3, Histone-lysine N-methyltransferase NSD2 (Homo sapiens, UniProt O96028); format: biochemical
T3 sequence (O96028 whole entry): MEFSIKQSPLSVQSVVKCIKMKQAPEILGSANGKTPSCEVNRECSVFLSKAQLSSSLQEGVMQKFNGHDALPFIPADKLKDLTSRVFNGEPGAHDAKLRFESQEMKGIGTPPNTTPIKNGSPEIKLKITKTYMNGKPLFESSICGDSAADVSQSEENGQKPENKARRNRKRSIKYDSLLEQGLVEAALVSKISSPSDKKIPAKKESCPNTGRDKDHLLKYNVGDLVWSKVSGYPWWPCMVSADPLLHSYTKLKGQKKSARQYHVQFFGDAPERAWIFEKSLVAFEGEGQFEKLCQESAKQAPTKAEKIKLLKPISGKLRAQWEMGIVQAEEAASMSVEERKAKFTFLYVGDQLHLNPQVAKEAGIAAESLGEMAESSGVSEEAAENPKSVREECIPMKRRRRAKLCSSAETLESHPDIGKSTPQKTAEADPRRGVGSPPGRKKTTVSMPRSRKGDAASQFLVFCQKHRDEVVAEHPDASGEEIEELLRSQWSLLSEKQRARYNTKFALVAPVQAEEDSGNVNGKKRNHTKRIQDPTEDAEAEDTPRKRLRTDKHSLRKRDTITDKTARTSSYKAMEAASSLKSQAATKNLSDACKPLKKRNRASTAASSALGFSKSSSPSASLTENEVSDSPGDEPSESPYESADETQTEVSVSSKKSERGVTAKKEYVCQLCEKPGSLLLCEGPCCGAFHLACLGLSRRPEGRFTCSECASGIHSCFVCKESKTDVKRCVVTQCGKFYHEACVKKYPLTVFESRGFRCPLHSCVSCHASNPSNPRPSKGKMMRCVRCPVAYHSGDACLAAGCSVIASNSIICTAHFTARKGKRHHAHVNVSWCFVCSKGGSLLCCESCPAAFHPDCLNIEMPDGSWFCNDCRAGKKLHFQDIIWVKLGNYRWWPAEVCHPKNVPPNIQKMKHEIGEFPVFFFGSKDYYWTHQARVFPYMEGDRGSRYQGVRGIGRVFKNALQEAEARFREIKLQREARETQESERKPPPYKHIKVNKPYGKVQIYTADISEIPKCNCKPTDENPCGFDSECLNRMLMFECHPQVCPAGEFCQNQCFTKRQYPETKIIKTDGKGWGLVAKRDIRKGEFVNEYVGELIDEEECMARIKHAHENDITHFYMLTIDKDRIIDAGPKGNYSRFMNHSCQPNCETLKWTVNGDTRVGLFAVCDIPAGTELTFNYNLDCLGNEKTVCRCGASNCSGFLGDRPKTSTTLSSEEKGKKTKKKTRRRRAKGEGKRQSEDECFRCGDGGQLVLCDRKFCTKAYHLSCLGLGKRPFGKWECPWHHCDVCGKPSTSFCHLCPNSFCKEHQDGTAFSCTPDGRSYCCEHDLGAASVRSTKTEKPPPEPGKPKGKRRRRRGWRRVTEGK

[8] = T. cruzi growth inhibition in host cells, dose response, cell-based, plate reader, dry powder, set 2 (AID 652275); format: functional
[9] = growth inhibition of intracellular T. cruzi, dose response, cell-based, plate reader, dry powder samples (AID 651845); format: functional
[10] = T. cruzi intracellular amastigote growth inhibition, dose response, imaging, CA-I/72 strain, bovine embryo skeletal muscle, dry powder (AID 651885); format: functional, cell-based
[11] = biological target: NAD-dependent protein deacylase sirtuin-5, mitochondrial (Homo sapiens, UniProt Q9NXA8); assay: SIRT5 deacylase inhibitors, dose response, biochemical, fluorescence imaging, cherry-pick, set 6 (AID 720597)
Sequence of NAD-dependent protein deacylase sirtuin-5, mitochondrial (Q9NXA8 whole entry): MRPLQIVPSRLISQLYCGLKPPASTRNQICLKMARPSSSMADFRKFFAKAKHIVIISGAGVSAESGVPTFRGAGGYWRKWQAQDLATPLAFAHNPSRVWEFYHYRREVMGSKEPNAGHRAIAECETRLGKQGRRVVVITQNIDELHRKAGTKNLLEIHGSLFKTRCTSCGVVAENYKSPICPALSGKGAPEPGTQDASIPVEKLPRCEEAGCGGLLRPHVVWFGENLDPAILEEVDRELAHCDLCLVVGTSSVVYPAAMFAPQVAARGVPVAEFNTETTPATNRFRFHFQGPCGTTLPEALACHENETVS

[12] = biological target: Paired box protein Pax-8 (Homo sapiens, UniProt Q06710); assay: inhibitors of PAX8-driven TPO luciferase reporter, dose response, RMG-I cells, cherry-pick (AID 687027); format: functional, cell-based;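 further: luciferase reporter driven by Pax8 target thyroperoxidase promoter measured by SteadyGlo luminescence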
Sequence of Paired box protein Pax-8 (Q06710 whole entry): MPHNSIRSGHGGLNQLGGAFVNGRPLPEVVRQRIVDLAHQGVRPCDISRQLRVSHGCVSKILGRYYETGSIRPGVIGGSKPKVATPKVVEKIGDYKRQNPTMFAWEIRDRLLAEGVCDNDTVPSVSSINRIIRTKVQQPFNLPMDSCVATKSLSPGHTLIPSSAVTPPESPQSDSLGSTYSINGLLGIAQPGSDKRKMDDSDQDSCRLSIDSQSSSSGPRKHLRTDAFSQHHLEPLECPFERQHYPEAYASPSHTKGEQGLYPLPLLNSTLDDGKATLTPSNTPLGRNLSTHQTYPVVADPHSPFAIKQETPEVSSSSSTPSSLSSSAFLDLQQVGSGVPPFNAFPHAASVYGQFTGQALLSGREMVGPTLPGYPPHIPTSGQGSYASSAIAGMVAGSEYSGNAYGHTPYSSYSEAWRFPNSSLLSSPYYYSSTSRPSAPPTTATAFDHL

[13] = PAX2 cell-based inhibition, dose response, selectivity assay for PAX8 inhibitor project, plate reader, dry powder samples (AID 743048); format: functional;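 further: HEK293 cells carrying a WT1 promoter luciferase reporter driven by expressed Pax2; potency is for inhibition of Pax2 driven reporter signal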
[14] = inhibitors of CMV-promoter luciferase reporter, dose response, counter-screen for Pax8 inhibitor project, cell-based, HEK293, luminescence, dry powder (AID 743020); format: functional
[15] = PAX5 activity inhibitors, dose response, selectivity assay for PAX8 inhibitor project, cell-based, plate reader, dry powder samples (AID 743047); format: functional;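 further: HEK293 cells carrying a Pax5 driven CD19 promoter luciferase reporter; potency of inhibitors that lower reporter luminescence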
[16] = HEK293T cytotoxicity, dose response, cytotoxicity control for miR-122 modulator project, cell-based, activator set, cherry-pick (AID 720690); format: functional;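 further: HEK293T human cells scored for general mammalian cytotoxicity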
[17] = cytotoxicity in COV434 cells, dose response, cytotoxicity control for PAX8 inhibitor project, cell-based, plate reader, dry powder, SA7 (AID 743145); format: functional
[18] = cytotoxicity in OV-90 ovarian cancer cells, dose response, PAX8 inhibitor project, cell-based, plate reader, dry powder, SA8 (AID 743149); format: functional
[19] = cytotoxicity in OVCAR8 ovarian cancer cells, dose response, PAX8 project, cell-based, plate reader, dry powder samples (AID 743197); format: functional; conditions: OVCAR-8
[20] = cytotoxicity dependent on PAX8, dose response, cell-based, plate reader, dry powder (AID 743049); format: functional
[21] = inhibitors of HIV Env-driven cell fusion, dose response, cherry-pick (AID 652057); format: functional, cell-based
[22] = CEM21 lymphoblast cell cytotoxicity, dose response, cytotoxicity control for viral fusion inhibitor project, CellTiter-Glo luminescence, cherry-picked (AID 652042); format: functional, cell-based;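 further: potency for signal decrease meaning cytotoxicity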
[23] = inhibitors of clade B AD8 Env fusion, dose response, cell-based, cherry-pick (AID 652062); format: functional;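 further: luciferase signal from cell-cell fusion driven by HIV-1 clade B AD8 Env; potency is for inhibitors of fusion seen as a drop in luminescence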
[24] = HIV Env cell-cell fusion inhibitors, dose response, HIV entry, plate reader, dry powder (AID 687023); format: functional, cell-based
[25] = P. falciparum Dd2 growth inhibitors, dose response, SYBR Green, cherry-picked samples (AID 1159567); format: functional, cell-based
[26] = HepG2 cell cytotoxicity, dose response, cytotoxicity control, cherry-picked samples (AID 1159577); format: functional, cell-based

Structure (SMILES): N=C1/C(=C\c2coc3ccccc3c2=O)C(=O)N=C2SC(c3ccncc3)=NN12
- IC50 [1]: 44 µM (active)
- IC50 [2]: 30.1 µM (not active)
- IC50 [3]: 9.26 µM (active)
- IC50 [4]: > 18.6 µM (not active)
- IC50 [5]: 11.1 µM (not active)
- EC50 [6]: > 7.72 µM (active)
- AC50 [7]: 18.8 µM (active)

Structure (SMILES): C[C@@H]1CN([C@@H](C)CO)C(=O)c2cccc(NC(=O)c3ccncc3)c2O[C@H]1CN(C)Cc1cccc(Cl)c1
- AC50 [8]: 0.0169 µM (active)
- AC50 [9]: 0.0706 µM (active)
- IC50 [10]: 0.0074 µM (active)

Structure (SMILES): CO[C@H]1CN(C)C(=O)c2ccc(NC(=O)C3CC3)cc2OC[C@@H](C)N(C(=O)c2ccccc2F)C[C@H]1C
- AC50 [11]: > 30 µM (inactive)

Structure (SMILES): C[C@H](CO)N1C[C@H](C)[C@@H](CN(C)Cc2ccc(C(F)(F)F)cc2)Oc2ccc(NS(=O)(=O)c3ccc(Cl)cc3)cc2CC1=O
- AC50 [12]: 11.2 µM (active)
- AC50 [13]: 28.6 µM (active)
- AC50 [14]: 41.8 µM (active)
- AC50 [15]: 29.8 µM (active)
- AC50 [16]: 12.9 µM (active)
- AC50 [17]: 37.7 µM (active)
- AC50 [18]: 39 µM (active)
- AC50 [19]: > 70 µM (inactive)
- AC50 [20]: 21.9 µM (active)

Structure (SMILES): CO[C@@H]1CN(C)C(=O)c2ccc(NC(=O)Nc3cccc(F)c3)cc2OC[C@@H](C)N(C(=O)Nc2cccc(F)c2)C[C@H]1C
- AC50 [21]: 3.17 µM (active)
- AC50 [22]: 61.4 µM (active)
- AC50 [23]: 61 µM (active)
- AC50 [24]: 8.94 µM (active)
- AC50 [25]: 3.07 µM (active)
- AC50 [26]: > 42 µM (inactive)
